Source: ChEMBL document CHEMBL3044847, “Evaluation of systemic acquired resistance inducers for control of Phytophthora capsici on squash” (Crop Prot, 2009)
Active and inactive are the calls of the source. The rule behind the calls is not given here.

Key:
Phytophthora capsici [1] = assay: Insecticidal activity against 10^3 spores/ml of Phytophthora capsici in Cucurbita pepo assessed as reduction of disease severity under greenhouse condition at 25 to 50 ug/ml applied as foliar spray after 1 week; format: functional, organism-based
Phytophthora capsici [2] = assay: Insecticidal activity against Phytophthora capsici assessed as inhibition of sporangium production at 25 to 1000 ug/ml after 4 days; format: functional, organism-based
Phytophthora capsici [3] = assay: Insecticidal activity against Phytophthora capsici in Cucurbita pepo assessed as effect on host weight and height under greenhouse condition at 25 to 50 ug/ml; format: functional, organism-based
Cucurbita pepo [4] = assay: Phytotoxicity in Cucurbita pepo (pumpkin) assessed as effect on host weight and height under greenhouse condition at 50 ug/ml; format: organism-based; details: in vivo
Cucurbita pepo [5] = assay: Toxicity in Cucurbita pepo (pumpkin) assessed as effect on host weight and height under greenhouse condition at 25 to 50 ug/ml; format: organism-based; details: in vivo
Phytophthora capsici [6] = assay: Insecticidal activity against Phytophthora capsici in Cucurbita pepo assessed as reduction of disease severity under greenhouse condition at 25 to 50 ug/ml after 1 week; format: functional, organism-based
Phytophthora capsici [7] = assay: Insecticidal activity against Phytophthora capsici assessed as inhibition of mycelial growth by measuring perpendicular colony diameter at 25 to 2000 ug/ml after 8 days; format: functional, organism-based
Phytophthora capsici [8] = assay: Insecticidal activity against Phytophthora capsici assessed as inhibition of zoospore germination at 25 to 1000 ug/ml after 4 days with 16 hr photoperiod; format: functional, organism-based
Phytophthora capsici [9] = assay: Insecticidal activity against Phytophthora capsici assessed as inhibition of zoospore germination at 500 to 1000 ug/ml after 4 days with 16 hr photoperiod; format: functional, organism-based
Phytophthora capsici [10] = assay: Insecticidal activity against Phytophthora capsici assessed as inhibition of sporangium production after 4 days; format: functional, organism-based
Phytophthora capsici [11] = assay: Insecticidal activity against 10^4 spores/ml of Phytophthora capsici in Cucurbita pepo assessed as reduction of disease severity under greenhouse condition at 25 to 50 ug/ml applied as foliar spray after 1 week; format: functional, organism-based
Phytophthora capsici [12] = assay: Insecticidal activity against Phytophthora capsici assessed as inhibition of sporangium production at 500 to 1000 ug/ml after 4 days; format: functional, organism-based

CC(N)CC(=O)O (racemic)
Activity (Phytophthora capsici [1]): Active
inhibition (Phytophthora capsici [2]): inactive
Activity (Phytophthora capsici [3]): Active
Activity (Cucurbita pepo [4]): Non-toxic
Activity (Cucurbita pepo [5]): Non-toxic
Activity (Phytophthora capsici [6]): Active
inhibition (Phytophthora capsici [7]): inactive
inhibition (Phytophthora capsici [8]): inactive

O=C(O)c1cc(Cl)nc(Cl)c1 [2,6-DICHLOROISONICOTINIC ACID]
Activity (Phytophthora capsici [1]): Active
inhibition (Phytophthora capsici [9]): Active
inhibition (Phytophthora capsici [10]): Dose-dependent effect
Activity (Phytophthora capsici [3]): Active
Activity (Cucurbita pepo [4]): Toxic
Activity (Phytophthora capsici [11]): Active
Activity (Phytophthora capsici [6]): Active
inhibition (Phytophthora capsici [7]): Active

O=C(O)c1ccccc1O [SALICYLIC ACID]
inhibition (Phytophthora capsici [9]): Active
Activity (Phytophthora capsici [3]): Active
Activity (Cucurbita pepo [5]): Non-toxic

CSC(=O)c1cccc2nnsc12 [ACIBENZOLAR-S-METHYL]
Activity (Phytophthora capsici [1]): Active
inhibition (Phytophthora capsici [12]): Active
Activity (Phytophthora capsici [3]): Active
Activity (Cucurbita pepo [4]): Toxic
Activity (Phytophthora capsici [11]): Active
Activity (Phytophthora capsici [6]): Active
inhibition (Phytophthora capsici [7]): inactive
inhibition (Phytophthora capsici [8]): inactive
